The subject of one assay is Cbl. The settings on record: Jurkat cells, pervanadate treatment; cited from earlier work.
In another assay the target is T1, Lyp1 (Homo sapiens, UniProt Q9Y2R2).
T1 construct: made in house; host or cells: COS cells (transient transfection, pcDNA3); anti-T7 immunoprecipitate
T1 sequence (Q9Y2R2 1-807): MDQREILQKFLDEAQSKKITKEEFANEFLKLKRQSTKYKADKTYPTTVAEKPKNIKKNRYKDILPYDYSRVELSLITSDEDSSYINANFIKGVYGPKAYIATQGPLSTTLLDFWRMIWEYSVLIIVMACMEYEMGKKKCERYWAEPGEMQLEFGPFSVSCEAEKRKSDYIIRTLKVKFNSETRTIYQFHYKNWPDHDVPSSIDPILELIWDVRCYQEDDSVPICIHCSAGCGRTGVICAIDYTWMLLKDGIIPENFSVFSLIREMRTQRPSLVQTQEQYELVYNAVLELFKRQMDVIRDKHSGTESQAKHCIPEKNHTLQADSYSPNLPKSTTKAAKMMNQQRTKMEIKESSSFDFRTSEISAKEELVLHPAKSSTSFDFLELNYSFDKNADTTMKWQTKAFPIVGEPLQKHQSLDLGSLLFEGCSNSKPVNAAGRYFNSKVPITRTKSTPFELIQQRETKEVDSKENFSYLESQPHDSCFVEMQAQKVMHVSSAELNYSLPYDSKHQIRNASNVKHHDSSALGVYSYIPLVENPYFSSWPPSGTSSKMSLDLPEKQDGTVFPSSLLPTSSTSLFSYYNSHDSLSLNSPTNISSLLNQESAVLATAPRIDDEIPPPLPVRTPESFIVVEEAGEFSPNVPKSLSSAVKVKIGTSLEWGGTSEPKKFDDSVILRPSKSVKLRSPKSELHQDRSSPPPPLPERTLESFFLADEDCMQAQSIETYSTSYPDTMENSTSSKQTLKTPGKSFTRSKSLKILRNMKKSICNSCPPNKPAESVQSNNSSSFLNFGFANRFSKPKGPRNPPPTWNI
Briefly: In vitro phosphatase assay with 33P labelled Raytide peptide and Lyp immunoprecipitates. Type of assay: biochemical. As to conditions: data not shown. As for the experimental part:
Anti-Lyp immunoprecipitates from untransfected and pcDNA3-Lyp1 transfected cells were prepared in pervanadate free lysis buffer and incubated with ^33P labelled substrate Raytide. At the indicated time points reactions were stopped by the addition of charcoal and the free ^33P released from the peptide and now present in the supernatant measured by liquid scintillation counting.
Raytide peptide was ^33P labelled on tyrosine residues in vitro using the tyrosine kinase p60src and purified on phosphocellulose paper. Release of ^33P over time was measured in the phosphatase assay and compared to controls from untransfected cells.
Specifically, the synthetic peptide Raytide was phosphorylated according to the method described by Guan et al., (1994)(54), on tyrosine by p60src (Oncogene Science) as follows: 10 μg Raytide in 50 mM Hepes pH 7.5, 10 mM MgCl2, 0.067% mercaptoethanol, 0.05 mM ATP was incubated with 300 μCiγ^33P ATP per ml and 2 μg p60src in a final volume of 30 μl. The reaction was allowed to proceed for 30 minutes at 30° C. and was stopped by the addition of […] 10% phosphoric acid.
The sample was spotted onto two 1×1 cm sheets of P81 phophocellulose paper and extensively washed with 0.5% phosphoric acid. […]
The phosphorylated substrate was used in the phosphatase assay as described by Stueli et al (1989)(54). […] After centrifugation the free ^33P in the supernatant was measured.

As for pervanadate [reference compound], the “phosphorylation of Cbl” value in the assay on Cbl is “marked increase”. The “inhibition of Lyp tyrosine phosphatase activity” value against Lyp1 is recorded as “completely inhibited”.

Values taken from patent US20040006777A1, “Human lymphoid protein tyrosine phosphatases” (HSC Research and Development Limited Partnership, priority 1998, published 2004).
